{
  "source": "patent US20050176813A1",
  "about": "“Novel chalcone derivatives and uses thereof” (priority 2002, published 2005)",
  "target": "Kv1.3 (Homo sapiens, UniProt P22001)",
  "sequence (P22001 whole entry)": "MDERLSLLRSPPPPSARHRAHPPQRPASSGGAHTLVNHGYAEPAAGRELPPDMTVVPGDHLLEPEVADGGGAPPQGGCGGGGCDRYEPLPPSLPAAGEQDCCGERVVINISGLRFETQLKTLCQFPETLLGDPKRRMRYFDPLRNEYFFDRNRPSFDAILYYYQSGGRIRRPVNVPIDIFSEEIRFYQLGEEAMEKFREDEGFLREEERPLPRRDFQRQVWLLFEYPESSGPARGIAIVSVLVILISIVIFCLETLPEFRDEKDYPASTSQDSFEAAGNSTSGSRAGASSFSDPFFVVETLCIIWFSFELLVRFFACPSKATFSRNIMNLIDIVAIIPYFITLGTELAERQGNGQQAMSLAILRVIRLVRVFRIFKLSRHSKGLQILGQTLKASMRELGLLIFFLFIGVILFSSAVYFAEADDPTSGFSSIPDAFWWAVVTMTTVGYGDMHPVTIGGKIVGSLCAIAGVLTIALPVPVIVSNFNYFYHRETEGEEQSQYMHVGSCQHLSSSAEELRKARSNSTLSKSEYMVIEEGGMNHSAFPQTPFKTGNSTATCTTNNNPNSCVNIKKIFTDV",
  "assay": "Kv1.3 channel block, estimated Kd (Table 1)",
  "format": "binding",
  "conditions": "for Block phasic or not: Kv1.3",
  "key": {"[1]": {"conditions": "Kv1.3, end, read-out: Est. Kd, Kd end"}, "[2]": {"conditions": "Kv1.3, peak, read-out: Est. Kd, Kd peak"}},
  "note": "Where two headings read alike, the source gives them in different places.",
  "data": [
    {"smiles": "COc1c(C(=O)CCc2ccccc2)c(O)c(OC)c2occc12", "note": "[Example 2]", "values": [
      {"measurement": "Kd", "setting": "[1]", "result": 0.3, "unit": "µM"},
      {"measurement": "Kd", "setting": "[2]", "result": 0.8, "unit": "µM"}
    ]},
    {"smiles": "COc1c(O)c(C(=O)CCc2ccccc2)c(OC)c2c1OCC2", "note": "[Example 3]", "values": [
      {"measurement": "Kd", "setting": "[2]", "result": 2, "unit": "µM"}
    ]},
    {"smiles": "COc1c(C(=O)/C=C/c2cccc(Cl)c2)c(O)c(OC)c2occc12", "note": "[Example 8]", "values": [
      {"measurement": "Block phasic or not", "result": "not phasic"},
      {"measurement": "Kd", "setting": "[2]", "result": 15, "unit": "µM"}
    ]},
    {"smiles": "COc1c(C(=O)/C=C/c2ccc(Cl)cc2)c(O)c(OC)c2occc12", "note": "[Example 9]", "values": [
      {"measurement": "Block phasic or not", "result": "not phasic"},
      {"measurement": "Kd", "setting": "[2]", "result": 7, "unit": "µM"}
    ]},
    {"smiles": "CCN(CC)CCOc1ccc(/C=C/C(=O)c2c(O)c(OC)c3occc3c2OC)cc1", "note": "[Example 12]", "values": [
      {"measurement": "Effect on Kv1.3", "setting": "at 10 μM", "result": "10 μM no effect Not tested against other channels"}
    ]},
    {"smiles": "CCN(CC)c1ccc(/C=C/C(=O)c2c(O)c(OC)c3occc3c2OC)cc1", "note": "[Example 13]", "values": [
      {"measurement": "Block phasic or not", "result": "not phasic"},
      {"measurement": "Kd", "setting": "[2]", "result": 18, "unit": "µM"}
    ]},
    {"smiles": "CCOc1ccc(/C=C/C(=O)c2c(O)c(OC)c3occc3c2OC)cc1", "note": "[Example 14]", "values": [
      {"measurement": "Kd", "setting": "[1]", "result": 1.5, "unit": "µM"},
      {"measurement": "Kd", "setting": "[2]", "result": 10, "unit": "µM"}
    ]},
    {"smiles": "COc1c(C(=O)/C=C/c2ccccc2F)c(O)c(OC)c2occc12", "note": "[Example 15]", "values": [
      {"measurement": "Kd", "setting": "[1]", "result": 12, "unit": "µM"},
      {"measurement": "Kd", "setting": "[2]", "result": 90, "unit": "µM"}
    ]},
    {"smiles": "COc1c(C(=O)/C=C/c2ccc(F)cc2)c(O)c(OC)c2occc12", "note": "[Example 17]", "values": [
      {"measurement": "Kd", "setting": "[1]", "result": 1, "unit": "µM"},
      {"measurement": "Kd", "setting": "[2]", "result": 8, "unit": "µM"}
    ]},
    {"smiles": "COc1c(C(=O)/C=C/c2ccc(O)cc2)c(O)c(OC)c2occc12", "note": "[Example 19]", "values": [
      {"measurement": "Kd", "setting": "[1]", "result": 0.9, "unit": "µM"},
      {"measurement": "Kd", "setting": "[2]", "result": 10, "unit": "µM"}
    ]},
    {"smiles": "COc1c(C(=O)/C=C/c2ccc(C(C)C)cc2)c(O)c(OC)c2occc12", "note": "[Example 20]", "values": [
      {"measurement": "Block phasic or not", "result": "not phasic"},
      {"measurement": "Kd", "setting": "[2]", "result": 3, "unit": "µM"}
    ]},
    {"smiles": "COc1c(C(=O)/C=C/c2ccccc2C)c(O)c(OC)c2occc12", "note": "[Example 21]", "values": [
      {"measurement": "Block phasic or not", "result": "not phasic"},
      {"measurement": "Kd", "setting": "[2]", "result": 2, "unit": "µM"}
    ]},
    {"smiles": "COc1c(C(=O)/C=C/c2ccc([N+](=O)[O-])cc2)c(O)c(OC)c2occc12", "note": "[Example 29]", "values": [
      {"measurement": "Behaviour of stocks in the Kv1.3 test", "setting": "stock solutions", "result": "Stocks precipitate"}
    ]},
    {"smiles": "COc1c(C(=O)/C=C/c2cccc(C(F)(F)F)c2)c(O)c(OC)c2occc12", "note": "[Example 32]", "values": [
      {"measurement": "Block phasic or not", "result": "not phasic"},
      {"measurement": "Kd", "setting": "[2]", "result": 40, "unit": "µM"}
    ]},
    {"smiles": "COc1c(C(=O)/C=C/c2ccc(C(F)(F)F)cc2)c(O)c(OC)c2occc12", "note": "[Example 33]", "values": [
      {"measurement": "Kd", "setting": "[1]", "result": 4, "unit": "µM"},
      {"measurement": "Kd", "setting": "[2]", "result": 10, "unit": "µM"}
    ]},
    {"smiles": "COc1c(C(=O)/C=C/c2cccc(Oc3ccccc3)c2)c(O)c(OC)c2occc12", "note": "[Example 34]", "values": [
      {"measurement": "Effect on Kv1.3", "setting": "at 5 μM", "result": "no effect at 5 μM Not tested against other channels"}
    ]},
    {"smiles": "COc1c(C(=O)/C=C/c2cccc(Oc3cccc(C(F)(F)F)c3)c2)c(O)c(OC)c2occc12", "note": "[Example 36]", "values": [
      {"measurement": "Effect on Kv1.3", "setting": "at 5 μM", "result": "no effect at 5 μM Not tested against other channels"}
    ]},
    {"smiles": "COc1c(C(=O)/C=C/c2cccc(Oc3ccc(C)cc3)c2)c(O)c(OC)c2occc12", "note": "[Example 37]", "values": [
      {"measurement": "Effect on Kv1.3", "setting": "at 1 μM", "result": "no effect at 1 μM Not tested against other channels"}
    ]},
    {"smiles": "COc1c(C(=O)/C=C/c2cccc3ccccc23)c(O)c(OC)c2occc12", "note": "[Example 38]", "values": [
      {"measurement": "Effect on Kv1.3", "setting": "at 5 μM", "result": "no effect at 5 μM Not tested against other channels"}
    ]},
    {"smiles": "COc1c(C(=O)/C=C/c2ccc3ccccc3c2)c(O)c(OC)c2occc12", "note": "[Example 39]", "values": [
      {"measurement": "Effect on Kv1.3", "setting": "at 5 μM", "result": "no effect at 5 μM Not tested against other channels"}
    ]},
    {"smiles": "COc1c(C(=O)/C=C/C=C/c2ccccc2)c(O)c(OC)c2occc12", "note": "[Example 40]", "values": [
      {"measurement": "Effect on Kv1.3", "setting": "at 1 μM", "result": "no effect at 1 μM Not tested against other channels"}
    ]},
    {"smiles": "COc1c(C(=O)/C=C/c2ccccc2C(=O)O)c(O)c(OC)c2occc12", "note": "[Example 41]", "values": [
      {"measurement": "Effect on Kv1.3", "setting": "at 20 μM", "result": "no effect at 20 μM Not tested against other channels"}
    ]},
    {"smiles": "COc1c(C(=O)/C=C/c2ccc(N(C)C)cc2)c(O)c(OC)c2occc12", "note": "[Example 42]", "values": [
      {"measurement": "Kd", "setting": "[1]", "result": 5, "unit": "µM"},
      {"measurement": "Kd", "setting": "[2]", "result": 14, "unit": "µM"}
    ]},
    {"smiles": "COc1c(C(=O)/C=C/c2ccccc2O)c(O)c(OC)c2occc12", "note": "[Example 43]", "values": [
      {"measurement": "Kd", "setting": "[1]", "result": 8, "unit": "µM"},
      {"measurement": "Kd", "setting": "[2]", "result": 16, "unit": "µM"}
    ]},
    {"smiles": "COc1c(C(=O)/C=C/C=C/c2ccc(N(C)C)cc2)c(O)c(OC)c2occc12", "note": "[Example 44]", "values": [
      {"measurement": "Block phasic or not", "result": "not phasic"},
      {"measurement": "Kd", "setting": "[2]", "result": 22, "unit": "µM"}
    ]},
    {"smiles": "COc1c(C(=O)/C=C/c2ccco2)c(O)c(OC)c2occc12", "note": "[Example 45]", "values": [
      {"measurement": "Kd", "setting": "[1]", "result": 4, "unit": "µM"},
      {"measurement": "Kd", "setting": "[2]", "result": 20, "unit": "µM"}
    ]},
    {"smiles": "COc1c(C(=O)/C=C/c2cccnc2)c(O)c(OC)c2occc12", "note": "[Example 48]", "values": [
      {"measurement": "Kd", "setting": "[1]", "result": 9, "unit": "µM"},
      {"measurement": "Kd", "setting": "[2]", "result": 20, "unit": "µM"}
    ]}
  ]
}
